From PMC7613998, “Development of selective inhibitors of phosphatidylinositol 3-kinase C2α” (Nature Chemical Biology, 2022)

Legend:
Assay in all cases: biochemical
Parameters in all cases: SelectScreen Z'-LYTE purified kinase panel, per cent inhibition, mean of two points
Settings in all cases: (μM)=Km app
ABL1 T315I = ABL1 T315I (Homo sapiens, UniProt P00519, T315I)
AURKA (Aurora A) = target: T1, AURKA (Aurora A) (Homo sapiens, UniProt O14965)
T1 sequence (O14965 1-403): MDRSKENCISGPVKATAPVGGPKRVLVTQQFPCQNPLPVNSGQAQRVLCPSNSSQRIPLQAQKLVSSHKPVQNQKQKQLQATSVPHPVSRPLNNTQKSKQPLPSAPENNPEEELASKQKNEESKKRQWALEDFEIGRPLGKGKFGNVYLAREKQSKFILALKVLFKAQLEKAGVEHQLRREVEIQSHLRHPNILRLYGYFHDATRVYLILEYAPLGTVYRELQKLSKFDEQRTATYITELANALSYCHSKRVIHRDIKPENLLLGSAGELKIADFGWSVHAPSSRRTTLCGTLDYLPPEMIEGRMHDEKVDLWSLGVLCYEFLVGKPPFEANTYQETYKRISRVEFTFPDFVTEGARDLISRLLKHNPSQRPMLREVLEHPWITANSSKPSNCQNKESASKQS

CHEK1 (CHK1) = target: T2, CHEK1 (CHK1) (Homo sapiens, UniProt O14757)
T2 sequence (O14757 1-476): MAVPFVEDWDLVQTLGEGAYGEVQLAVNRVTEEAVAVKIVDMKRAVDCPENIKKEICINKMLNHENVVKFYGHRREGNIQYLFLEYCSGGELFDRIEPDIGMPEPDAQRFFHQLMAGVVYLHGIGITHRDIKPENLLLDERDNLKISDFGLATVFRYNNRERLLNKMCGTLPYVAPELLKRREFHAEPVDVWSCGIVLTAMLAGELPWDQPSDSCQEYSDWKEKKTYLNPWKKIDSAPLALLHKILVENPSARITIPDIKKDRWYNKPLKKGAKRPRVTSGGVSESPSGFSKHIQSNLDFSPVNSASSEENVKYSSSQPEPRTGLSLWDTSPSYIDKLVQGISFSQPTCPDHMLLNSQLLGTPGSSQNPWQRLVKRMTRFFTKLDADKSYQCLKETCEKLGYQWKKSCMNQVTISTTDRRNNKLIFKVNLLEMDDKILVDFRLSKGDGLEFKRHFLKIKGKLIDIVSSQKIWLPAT

CSF1R (FMS) = CSF1R (FMS) (Homo sapiens, UniProt P07333)
Chain of CSF1R (FMS) (P07333 whole entry): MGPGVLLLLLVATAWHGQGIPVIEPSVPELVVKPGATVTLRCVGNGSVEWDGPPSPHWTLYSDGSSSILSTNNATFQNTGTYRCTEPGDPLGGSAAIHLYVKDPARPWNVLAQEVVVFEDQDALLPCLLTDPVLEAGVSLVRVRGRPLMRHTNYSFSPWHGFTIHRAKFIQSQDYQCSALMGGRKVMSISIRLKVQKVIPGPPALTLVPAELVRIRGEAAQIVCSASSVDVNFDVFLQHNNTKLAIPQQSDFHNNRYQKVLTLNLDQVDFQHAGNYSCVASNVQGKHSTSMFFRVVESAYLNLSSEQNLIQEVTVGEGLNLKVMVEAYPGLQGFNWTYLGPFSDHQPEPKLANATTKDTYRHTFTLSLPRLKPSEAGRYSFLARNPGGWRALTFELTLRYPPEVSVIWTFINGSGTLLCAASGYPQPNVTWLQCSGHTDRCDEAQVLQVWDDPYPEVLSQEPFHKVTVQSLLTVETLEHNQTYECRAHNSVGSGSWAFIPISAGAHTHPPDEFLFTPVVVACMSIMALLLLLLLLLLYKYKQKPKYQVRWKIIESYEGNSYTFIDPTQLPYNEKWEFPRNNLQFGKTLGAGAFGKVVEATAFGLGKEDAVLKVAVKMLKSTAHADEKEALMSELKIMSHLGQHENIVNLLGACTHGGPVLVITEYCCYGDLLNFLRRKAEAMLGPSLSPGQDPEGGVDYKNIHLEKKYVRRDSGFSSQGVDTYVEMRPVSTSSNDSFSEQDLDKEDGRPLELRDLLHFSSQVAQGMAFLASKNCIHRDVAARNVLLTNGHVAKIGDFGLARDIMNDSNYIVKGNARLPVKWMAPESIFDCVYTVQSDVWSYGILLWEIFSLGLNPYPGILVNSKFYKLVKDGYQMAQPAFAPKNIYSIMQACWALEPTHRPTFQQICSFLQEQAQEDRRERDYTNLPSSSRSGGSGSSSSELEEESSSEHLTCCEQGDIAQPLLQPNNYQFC

EGFR (ErbB1) L858R = EGFR (ErbB1) L858R (Homo sapiens, UniProt P00533, L858R)
JAK1 = JAK1 (Homo sapiens, UniProt P23458)
Chain of JAK1 (P23458 whole entry): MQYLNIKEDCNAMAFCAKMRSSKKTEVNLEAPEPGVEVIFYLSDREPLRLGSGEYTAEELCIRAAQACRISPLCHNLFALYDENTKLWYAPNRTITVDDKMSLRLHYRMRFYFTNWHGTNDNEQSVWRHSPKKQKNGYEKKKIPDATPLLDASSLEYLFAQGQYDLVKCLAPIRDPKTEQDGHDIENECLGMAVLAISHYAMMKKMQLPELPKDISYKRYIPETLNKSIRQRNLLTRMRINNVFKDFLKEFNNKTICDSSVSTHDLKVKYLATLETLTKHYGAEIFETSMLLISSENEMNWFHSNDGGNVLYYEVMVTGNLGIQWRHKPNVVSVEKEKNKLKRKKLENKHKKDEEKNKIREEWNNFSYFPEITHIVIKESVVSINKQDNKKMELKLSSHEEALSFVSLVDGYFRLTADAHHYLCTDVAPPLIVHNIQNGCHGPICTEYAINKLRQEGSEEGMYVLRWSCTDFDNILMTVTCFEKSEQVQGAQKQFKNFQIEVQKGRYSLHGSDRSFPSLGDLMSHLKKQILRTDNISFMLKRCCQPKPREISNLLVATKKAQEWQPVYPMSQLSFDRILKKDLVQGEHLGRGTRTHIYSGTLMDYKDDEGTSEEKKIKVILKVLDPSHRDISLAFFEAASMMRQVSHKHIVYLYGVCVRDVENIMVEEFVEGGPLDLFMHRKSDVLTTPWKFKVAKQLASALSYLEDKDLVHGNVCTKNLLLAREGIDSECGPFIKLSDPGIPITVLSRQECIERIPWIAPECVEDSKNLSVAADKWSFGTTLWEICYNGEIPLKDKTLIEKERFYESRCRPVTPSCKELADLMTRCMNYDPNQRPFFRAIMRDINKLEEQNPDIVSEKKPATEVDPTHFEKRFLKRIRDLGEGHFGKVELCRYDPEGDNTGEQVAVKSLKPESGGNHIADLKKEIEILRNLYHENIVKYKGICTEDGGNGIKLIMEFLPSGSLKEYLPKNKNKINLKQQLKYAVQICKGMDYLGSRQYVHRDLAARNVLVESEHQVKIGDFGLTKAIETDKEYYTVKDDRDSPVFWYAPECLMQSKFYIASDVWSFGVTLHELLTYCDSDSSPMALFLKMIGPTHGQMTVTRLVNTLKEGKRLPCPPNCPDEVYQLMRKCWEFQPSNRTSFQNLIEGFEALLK

MAPKAPK2 = MAPKAPK2 (Homo sapiens, UniProt P49137)
Chain of MAPKAPK2 (P49137 whole entry): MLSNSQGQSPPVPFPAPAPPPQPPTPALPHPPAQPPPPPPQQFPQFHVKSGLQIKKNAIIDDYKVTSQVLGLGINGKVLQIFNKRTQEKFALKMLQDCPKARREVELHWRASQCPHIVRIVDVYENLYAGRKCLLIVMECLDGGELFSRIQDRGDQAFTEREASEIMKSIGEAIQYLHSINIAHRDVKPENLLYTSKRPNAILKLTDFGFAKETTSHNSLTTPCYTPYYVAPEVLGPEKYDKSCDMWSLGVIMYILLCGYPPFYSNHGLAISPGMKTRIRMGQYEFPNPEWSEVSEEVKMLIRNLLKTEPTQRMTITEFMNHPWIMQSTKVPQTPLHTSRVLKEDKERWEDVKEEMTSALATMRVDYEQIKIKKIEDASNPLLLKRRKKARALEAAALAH

MARK3 = MARK3 (Homo sapiens, UniProt P27448)
Chain of MARK3 (P27448 whole entry): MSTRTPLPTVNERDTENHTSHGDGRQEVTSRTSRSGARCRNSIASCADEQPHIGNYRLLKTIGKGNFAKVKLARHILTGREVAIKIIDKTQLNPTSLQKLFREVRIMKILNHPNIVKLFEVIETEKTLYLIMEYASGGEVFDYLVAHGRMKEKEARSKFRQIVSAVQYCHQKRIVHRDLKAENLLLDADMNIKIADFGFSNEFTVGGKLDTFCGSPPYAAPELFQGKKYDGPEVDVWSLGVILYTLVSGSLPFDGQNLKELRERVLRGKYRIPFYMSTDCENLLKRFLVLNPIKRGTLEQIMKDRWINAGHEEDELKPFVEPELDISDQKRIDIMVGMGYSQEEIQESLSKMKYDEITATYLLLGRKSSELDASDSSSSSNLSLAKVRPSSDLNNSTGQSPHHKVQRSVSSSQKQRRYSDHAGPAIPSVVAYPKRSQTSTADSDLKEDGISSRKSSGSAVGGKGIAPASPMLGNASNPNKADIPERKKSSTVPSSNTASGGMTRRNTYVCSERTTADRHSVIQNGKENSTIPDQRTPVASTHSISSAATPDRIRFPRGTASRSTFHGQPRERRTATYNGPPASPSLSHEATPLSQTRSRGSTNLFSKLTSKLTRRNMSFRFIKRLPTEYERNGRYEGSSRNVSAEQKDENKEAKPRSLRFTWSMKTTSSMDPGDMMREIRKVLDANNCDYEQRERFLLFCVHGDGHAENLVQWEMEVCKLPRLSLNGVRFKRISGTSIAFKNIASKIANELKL

MKNK1 (MNK1) = MKNK1 (MNK1) (Homo sapiens, UniProt Q9BUB5)
PAK4 = PAK4 (Homo sapiens, UniProt O96013)
Chain of PAK4 (O96013 whole entry): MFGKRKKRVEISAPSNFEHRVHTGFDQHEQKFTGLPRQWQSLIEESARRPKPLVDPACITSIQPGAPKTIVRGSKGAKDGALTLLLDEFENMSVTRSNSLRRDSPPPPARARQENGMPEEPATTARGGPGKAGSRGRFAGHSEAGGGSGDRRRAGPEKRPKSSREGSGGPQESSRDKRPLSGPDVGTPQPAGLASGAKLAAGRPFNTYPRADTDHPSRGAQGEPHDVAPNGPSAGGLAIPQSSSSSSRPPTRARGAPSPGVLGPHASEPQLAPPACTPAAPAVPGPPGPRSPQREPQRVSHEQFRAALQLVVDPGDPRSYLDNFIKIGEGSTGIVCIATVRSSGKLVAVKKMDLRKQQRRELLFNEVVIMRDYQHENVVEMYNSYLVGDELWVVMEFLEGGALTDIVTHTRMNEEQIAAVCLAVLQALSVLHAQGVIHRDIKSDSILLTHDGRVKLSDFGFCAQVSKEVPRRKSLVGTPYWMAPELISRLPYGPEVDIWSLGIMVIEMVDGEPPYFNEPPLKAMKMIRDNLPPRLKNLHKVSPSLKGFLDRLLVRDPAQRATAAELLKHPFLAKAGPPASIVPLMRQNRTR

TYK2 = TYK2 (Homo sapiens, UniProt P29597)
Chain of TYK2 (P29597 whole entry): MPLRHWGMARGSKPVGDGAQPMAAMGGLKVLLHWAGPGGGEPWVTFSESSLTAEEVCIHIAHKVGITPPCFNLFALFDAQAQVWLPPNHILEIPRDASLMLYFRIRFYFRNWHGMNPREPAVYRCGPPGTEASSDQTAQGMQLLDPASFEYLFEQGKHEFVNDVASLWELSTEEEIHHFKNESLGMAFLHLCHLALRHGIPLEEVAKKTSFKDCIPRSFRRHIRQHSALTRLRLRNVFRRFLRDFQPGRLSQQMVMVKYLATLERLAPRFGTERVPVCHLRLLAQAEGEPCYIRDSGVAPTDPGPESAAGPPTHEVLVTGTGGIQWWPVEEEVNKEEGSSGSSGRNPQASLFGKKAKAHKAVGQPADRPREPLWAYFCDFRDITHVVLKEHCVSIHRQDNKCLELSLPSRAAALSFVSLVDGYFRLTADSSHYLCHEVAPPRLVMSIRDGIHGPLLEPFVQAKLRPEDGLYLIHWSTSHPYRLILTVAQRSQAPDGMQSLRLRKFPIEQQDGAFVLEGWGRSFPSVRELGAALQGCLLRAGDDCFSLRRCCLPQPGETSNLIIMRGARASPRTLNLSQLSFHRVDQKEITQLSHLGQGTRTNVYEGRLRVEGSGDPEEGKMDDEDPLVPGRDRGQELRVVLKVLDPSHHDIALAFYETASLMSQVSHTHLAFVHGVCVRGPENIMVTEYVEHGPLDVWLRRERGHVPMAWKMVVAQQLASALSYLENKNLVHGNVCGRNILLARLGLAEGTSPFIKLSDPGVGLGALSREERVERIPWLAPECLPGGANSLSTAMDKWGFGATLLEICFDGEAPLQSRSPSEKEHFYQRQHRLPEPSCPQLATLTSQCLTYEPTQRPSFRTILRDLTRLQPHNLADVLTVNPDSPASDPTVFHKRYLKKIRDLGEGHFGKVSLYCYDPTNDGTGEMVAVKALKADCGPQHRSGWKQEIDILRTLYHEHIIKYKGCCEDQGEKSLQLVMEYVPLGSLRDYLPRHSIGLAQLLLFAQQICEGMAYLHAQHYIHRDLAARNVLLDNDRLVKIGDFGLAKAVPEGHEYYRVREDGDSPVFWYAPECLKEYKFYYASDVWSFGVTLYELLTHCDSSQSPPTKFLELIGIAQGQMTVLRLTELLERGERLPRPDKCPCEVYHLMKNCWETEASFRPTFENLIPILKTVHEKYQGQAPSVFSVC

Compound	inhibition at 1 µM (ABL1 T315I) [%]	inhibition at 3 µM (ABL1 T315I) [%]	inhibition at 10 µM (ABL1 T315I) [%]	inhibition at 1 µM (AURKA (Aurora A)) [%]	inhibition at 3 µM (AURKA (Aurora A)) [%]	inhibition at 10 µM (AURKA (Aurora A)) [%]	inhibition at 1 µM (CHEK1 (CHK1)) [%]	inhibition at 3 µM (CHEK1 (CHK1)) [%]	inhibition at 10 µM (CHEK1 (CHK1)) [%]	inhibition at 1 µM (CSF1R (FMS)) [%]	inhibition at 3 µM (CSF1R (FMS)) [%]	inhibition at 10 µM (CSF1R (FMS)) [%]	inhibition at 1 µM (EGFR (ErbB1) L858R) [%]	inhibition at 3 µM (EGFR (ErbB1) L858R) [%]	inhibition at 10 µM (EGFR (ErbB1) L858R) [%]	inhibition at 1 µM (JAK1) [%]	inhibition at 3 µM (JAK1) [%]	inhibition at 10 µM (JAK1) [%]	inhibition at 1 µM (MAPKAPK2) [%]	inhibition at 3 µM (MAPKAPK2) [%]	further results
O=C(CSc1nc2nccnc2c(=O)n1CCc1ccccc1)Nc1nccs1 [compound 1, PITCOIN1]	-2.1	-3.21	-2.35	0.058	0.515	-0.231	-13.5	-11.6	-3.01	12.1	7.54	7.66	-0.259	2.85	-1.14	6.58	2.72	0.0941	4.27	5.91	inhibition at 10 µM (MAPKAPK2): 1.1%; inhibition at 1 µM (MARK3): 2.69%; inhibition at 3 µM (MARK3): 11.3%; inhibition at 10 µM (MARK3): 0.672%; inhibition at 1 µM (MKNK1 (MNK1)): -10.5%; inhibition at 3 µM (MKNK1 (MNK1)): -9.2%; inhibition at 10 µM (MKNK1 (MNK1)): -14.3%; inhibition at 1 µM (PAK4): 9.59%; inhibition at 3 µM (PAK4): 9%; inhibition at 10 µM (PAK4): 4.11%; inhibition at 1 µM (TYK2): -4.9%; inhibition at 3 µM (TYK2): -7.09%; inhibition at 10 µM (TYK2): -1.29%
CS(=O)(=O)Nc1cccc(-c2csc(NC(=O)CSc3nc4nccnc4c(=O)n3CCc3ccccc3)n2)c1 [compound 3, PITCOIN3]	1.95	3.78	2.19	5.01	0.816	0.802	-7.7	-2.83	-11.2	10.1	14	13.3	1.72	5.21	-1.6	2.76	4.25	0.516	0.509	3.08	inhibition at 10 µM (MAPKAPK2): 6.37%; inhibition at 1 µM (MARK3): 1.74%; inhibition at 3 µM (MARK3): 4.94%; inhibition at 10 µM (MARK3): 6.84%; inhibition at 1 µM (MKNK1 (MNK1)): -3.26%; inhibition at 3 µM (MKNK1 (MNK1)): -7.92%; inhibition at 10 µM (MKNK1 (MNK1)): 0.613%; inhibition at 1 µM (PAK4): 4.8%; inhibition at 3 µM (PAK4): 3.9%; inhibition at 10 µM (PAK4): 2.41%; inhibition at 1 µM (TYK2): 3.78%; inhibition at 3 µM (TYK2): -2.18%; inhibition at 10 µM (TYK2): 4.5%
